Assay results taken from patent US6897019B1, “Methods for treating and preventing insulin resistance and related disorders” (priority 1998, dated 2005).
“Also recorded” adds a separate entry of the source. Blank lines part the entries; values can stand above or below the compound they belong to.

Columns and labels:
3T3-L1 adipocytes [1] = experiment: TNF-α induced FFA release from 3T3-L1 adipocytes (NEFA-C colorimetric kit); type: cell-based, Mouse; settings: 24 hours
Procedure: (§1) Differentiated 3T3-L1 adipocytes cultured in 12 well plates were incubated overnight in DMEM+0.5% BSA in the absence of serum. The following morning, the cells were incubated in the presence or absence of 2 mM or 20 mM sodium salicylate (NaSal) and treated with recombinant murine TNF-α (m TNF-α; Genzyme; Cambridge, Mass.) with or without 17 μM 15-deoxy-^12,14-PGJ2 (“PGJ2”; Cayman Chemical; Ann Arbor, Mich.) or 10 μM BRL 49653 (“BRL”; Smith Kine Beecham (Hamish Ross) (King of Prussia, Pa.)) for 24 hours. The glycerol content in the culture medium was determined using a colorimetric assay (GPO-Trinder, Sigma, St Louis, […].). Protein content was determined using the BCA (bicinchonic acid) protein assay (Pierce, Rockford, Ill.). The results are indicated as nmol glycerol per mg protein.
In this example, cells were treated for 24 hours as described above, and FFA levels in the culture medium were determined using a colorimetric kit (NEFA-C, WAKO Pure Chemicals, Osaka, Japan).

3T3-L1 adipocytes [2] = experiment: Lipolysis (glycerol in culture medium) of 3T3-L1 adipocytes with or without TNF-α; type: cell-based, Mouse; settings: for reduction of the increase in glycerol release associated with TNF-α: then 24 hours TNF-α plus BRL 1 μM
Procedure: 3T3-L1 adipocytes used in this example were obtained from 3T3-L1 fibroblasts as follows. 3T3-L1 fibroblasts (ATCC Deposit NO. CL-173, described in U.S. Pat. No. 4,003,789) were cultured in Dulbecco's Modified Eagle's Medium (DMEM) containing 10% bovine calf serum, and induced to differentiate into adipocytes using standard protocols, as described, e.g., in Kohanski et al. (1996) J. Biol. Chem. 261:12272. Adipocytes were used 10-15 days after the differentiation protocol was initiated.
as §1
Accordingly, 3T3-L1 adipocytes were treated with BRL at 10 μM, 1 μM or 1 nM and TNF-α as described above, and the amount of glycerol was determined after 24 hours.
3T3-L1 adipocytes were treated with TNF-α (2 or 10 ng/ml), TNF-α plus BRL at 10 μM, TNF-α plus PGJ2 at 15 μM, or BRL or PGJ2 alone for 5 days. The media was replaced everyday and collected on day 5 to measure accumulation of glycerol.
[…] The glycerol content in the culture medium was determined as described above.
3T3-L1 adipocytes prepared as described in Example 1 were preincubated with various amounts (0-50 μM) of the p38 kinase inhibitor SB203580 and then treated with 10 ng/ml TNF-α for 24 hours and the amount of glycerol in the culture medium determined as described above. […]

ERK1/2 = experiment: ERK 1/2 kinase assay (MBP substrate) on extracts of treated 3T3-L1 adipocytes; type: cell-based, Mouse
Procedure: In this example, 3T3-L1 cells were treated as described in Example 2, and cell extracts were used in an ERK 1/2 kinase assay, using MBP (myelin basic protein) as a substrate. The assay used is described in Boulton et al. (1991) Cell Reg. 2: 357.
(§2) 3T3-L1 adipocytes prepared as described in Example 1 were pretreated for 3 hours with or without 20 mM NaSal or 100 μM PD98059 and then treated for 15 minutes with or without 10 ng/ml mTNF-α and with or without 10 μM BRL. Cell extracts were then prepared and used in ERK 1/2 kinase and JNK-1 kinase assays, as described above.
(§3) 3T3-L1 cells were pretreated for 3 days with 17 μM of PGJ2 and then for 15 minutes with 10 ng/ml TNF-α. The amount of phosphorylated (thus activated) JNK-1, ERK1/2, and p38 was determined by Western blot using an antibody specifically recognizing phosphorylated forms of the proteins. As a control, the total amount of JNK-1, ERK1/2 and p38 protein was determined by Western blot using an antibody recognizing the phosphorylated and non phosphorylated forms of the protein. The activity of ERK1/2 and JNK kinases was also determined in a kinase assay using MBP and a portion of c-jun, respectively, as substrate.

JNK-1 = JNK-1 kinase assay (c-jun substrate) on extracts of treated 3T3-L1 adipocytes; type: cell-based, Mouse; settings: 3 hours pretreatment with 20 mM NaSal or 100 μM PD98059, then 15 minutes 10 ng/ml TNF-α
Procedure: 3T3-L1 adipocytes were pretreated for 3 hours with or without 20 mM NaSal, with or without 100 μM MAP kinase kinase (MEK) inhibitor PD98059 (Biomol; Cat. No. EI-360) and then for 15 minutes with 10 ng/ml mTNF-α. JNK-1 kinase assays were then performed with extracts of each of these cell cultures on an N-terminal portion of c-jun, as described in Derjarde et al. (1994) Cell 76: 1025.
as §2, §3

JNK = settings: FS4 fibroblasts; Schwenger et al. 1997; cited from earlier work
p42/1p44 MAP kinases = settings: FS4 fibroblasts; Schwenger et al. 1996; cited from earlier work
human adipocytes = experiment: TNF-α induced lipolysis in primary cultures of human adipocytes; type: cell-based; settings: PD98059 72 hours pretreatment, then 24 hours 100 ng/ml human TNF-α
Procedure: Similar results were also obtained using primary cultures of human adipocytes. Primary cultures of human adipocytes, obtained from Zen-Bio were pretreated for 72 hours with PD98059 and then for 24 hours with 100 ng/ml of human TNF-α.

[3] = PD98059, pretreatment for 3 hours

SMILES: CN(CCOc1ccc(CC2SC(=O)NC2=O)cc1)c1ccccn1 (stereo not shown) [BRL, rosiglitazone]
- effect on FFA release (3T3-L1 adipocytes [1]; BRL alone, no TNF-α): no effect
- reduction of TNF-α induced FFA release (3T3-L1 adipocytes [1]; BRL, 10 ng/ml TNF-α): about 90%
- reduction of the increase in glycerol release associated with TNF-α (3T3-L1 adipocytes [2]; 24 hour pretreatment with TNF-α 2 ng/ml): about 65%
- reduction of the increase in glycerol release associated with TNF-α (3T3-L1 adipocytes [2]; 24 hour pretreatment with TNF-α 10 ng/ml): about 50%
- inhibition of basal lipolysis (3T3-L1 adipocytes [2]; 72 hour pretreatment with BRL, no TNF-α): approximately 30%
- blocked share of the increase in glycerol release due to TNF-α (3T3-L1 adipocytes [2]; 5 days, BRL 10 μM or PGJ2 15 μM, TNF-α 2 or 10 ng/ml, last 24 hours): about 100%
- inhibition of TNF-α induced lipolysis (3T3-L1 adipocytes [2]; BRL, Example 6 (72 hour pretreatment context)): > 90%
- earliest time point at which the effect of TNF-α on glycerol release began to reverse (3T3-L1 adipocytes [2]; after addition of BRL to TNF-α pretreated cells): 6 h
- reduction in activation of ERK, factor (ERK1/2; 72 hour pretreatment with 5 μM BRL, then TNF-α 10 ng/ml 15 minutes in the presence of BRL): about 2.5 factor

SMILES: O=C([O-])c1ccccc1O.[Na+] [NaSal, sodium salicylate]
- ability of TNF-α to increase lipolysis (3T3-L1 adipocytes [2]; 2 mM NaSal): partially reduced
- inhibition of glycerol production, factor (3T3-L1 adipocytes [2]; 2 mM NaSal, induced by 10 ng/ml TNF-α, 24 hours): ~2 factor
- ability of TNF-α to increase lipolysis (3T3-L1 adipocytes [2]; 20 mM NaSal): completely blocked
- inhibition of TNF-α induced lipolysis (3T3-L1 adipocytes [2]; 2 or 20 mM NaSal, TNF-α 2 ng/ml (Panel A) or 20 ng/ml (Panel B), 24 hours): significantly inhibited
- inhibition of glycerol production, factor (3T3-L1 adipocytes [2]; induced by 2 ng/ml TNF-α, NaSal 2 or 20 mM, 24 hours): 3-4 factor
- TNF-α induced JNK-1 activation (kinase activity) (JNK-1): significantly reduced; also recorded: decreases
- inhibition of TNF-induced activation of JNK (JNK): capable of inhibiting
- inhibition of ERK1/2 activation (ERK1/2; 20 mM NaSal 3 hours, then 15 minutes 10 ng/ml TNF-α): about two
- inhibition of TNF-induced activation of p42/1p44 MAP kinases (p42/1p44 MAP kinases): capable of inhibiting

- increase of MBP phosphorylation in the presence of TNF-α and inhibitor, factor (ERK1/2; 100 μM PD98059 3 hours, then 15 minutes 10 ng/ml TNF-α): less than two
- inhibition of MAP kinase activation (ERK1/2; 100 μM PD98059 (Example 6, FIG. 6)): at least 90%
- TNF-α induced ERK1/2 activation (kinase activity) (ERK1/2; 3 hours pretreatment with 20 mM NaSal or 100 μM PD98059, then 15 minutes 10 ng/ml TNF-α): inhibited
SMILES: COc1cccc(-c2cc(=O)c3ccccc3o2)c1N [PD98059]
- decrease of TNF-α induced lipolysis, factor (3T3-L1 adipocytes [2]; 100 μM PD98059, 24 hours pretreatment, then TNF-α 24 hours): less than 2 factor
- reduction of TNF-α induced lipolysis (3T3-L1 adipocytes [2]; [3]): about 76%
- reduction of TNF-α induced lipolysis, factor (3T3-L1 adipocytes [2]; [3]): about 3 factor
- TNF-α induced lipolysis in human cells (human adipocytes): reduced
